Some test systems named below: SNB-75 CNS; SK-OV-3 ovarian; SK-MEL-2 melanoma; TK-10 renal; SN12C renal; IGROV1 ovarian; ACHN renal; M19-MEL melanoma; SNB-78 CNS; HL-60(TB) leukemia.
What all share (assay): DTP human tumour cell line panel, 48 h

Where “and” joins values, the source holds several entries; their conditions need not be identical. Equal values may be shown once.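 Tested at 5 concentrations; 48 h exposure; 96-well plates; endpoints linearly interpolated, else capped at highest concentration. At the GI50, growth is halved. At the TGI there is no net growth.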

Usually TGI stands for the concentration giving total growth inhibition. A low value points to greater sensitivity of the cells. A word on the GI50: it is the concentration that inhibits growth by half.

Consider `COC(=O)/C=C1\CCC2[C@@H](C(=O)CC3[C@]2(C)CCC[C@@]3(C)C(=O)OC)C1C` (stereo partly specified), for which the total growth inhibition concentration (TGI) was determined as 47.9 µM with SNB-75 CNS; 72.4 µM with SK-OV-3 ovarian; 39.4 µM with SK-MEL-2 melanoma; 53.4 µM in the assay with TK-10 renal; 70.8 µM in the assay on SN12C renal; 57 µM in the assay on IGROV1 ovarian. The TGI was 63.9 µM in the assay on ACHN renal, 39.7 µM in the assay on M19-MEL melanoma, more than 100 µM with SNB-78 CNS and 35.1 µM with HL-60(TB) leukemia.
Consider `Cc1nc2ccccc2c(=O)n1/N=C(\N=Nc1ccccc1)c1ccccc1Cl`, for which the TGI with SNB-75 CNS is 82.2 µM; in the assay with SK-OV-3 ovarian, 45.8 µM; in the assay with SK-MEL-2 melanoma, 66.3 µM; in the assay on TK-10 renal it was more than 86.4 µM; in the assay on SN12C renal it was more than 68.1 µM; in the assay with IGROV1 ovarian, more than 100 µM. The total growth inhibition concentration (TGI) in the assay on ACHN renal, in the assay with M19-MEL melanoma, in the assay with SNB-78 CNS and in the assay on HL-60(TB) leukemia was more than 100 µM each time.
In the case of `O=CCCn1[nH]c(=O)ccc1=O`, the total growth inhibition concentration (TGI) in the assay on SNB-75 CNS, in the assay with SK-MEL-2 melanoma, in the assay with TK-10 renal, in the assay with SN12C renal, with IGROV1 ovarian and with ACHN renal was more than 100 µM each time. The TGI in the assay on M19-MEL melanoma, in the assay with SNB-78 CNS and with HL-60(TB) leukemia was more than 100 µM throughout.
On to `O=CN/C=C/c1ccccc1`, for which the total growth inhibition concentration (TGI) with SNB-75 CNS, in the assay with SK-OV-3 ovarian, in the assay on SK-MEL-2 melanoma, in the assay on TK-10 renal, in the assay with SN12C renal and in the assay on IGROV1 ovarian was more than 100 µM each time. For the same compound, the concentration for total growth inhibition (TGI) in the assay on ACHN renal, with M19-MEL melanoma, in the assay with SNB-78 CNS and in the assay with HL-60(TB) leukemia was more than 100 µM in each case.
On to `C=CCCn1nc(-c2ccccc2)oc1=O`, for which the total growth inhibition concentration (TGI) in the assay with SNB-75 CNS, in the assay with SK-OV-3 ovarian, in the assay on SK-MEL-2 melanoma, with TK-10 renal, with SN12C renal and with IGROV1 ovarian was more than 100 µM throughout. Moreover, the concentration for total growth inhibition (TGI) in the assay with ACHN renal, in the assay on M19-MEL melanoma, in the assay on SNB-78 CNS and with HL-60(TB) leukemia was more than 100 µM throughout.
For the compound `O=C1CCCc2ccc([N+](=O)[O-])c(O)c21`, the total growth inhibition concentration (TGI) in the assay on SNB-75 CNS, with SK-OV-3 ovarian, in the assay on SK-MEL-2 melanoma, in the assay with TK-10 renal, in the assay on SN12C renal and with IGROV1 ovarian was more than 100 µM each time. Also, the concentration for total growth inhibition (TGI) in the assay with ACHN renal, in the assay on M19-MEL melanoma, in the assay with SNB-78 CNS and in the assay on HL-60(TB) leukemia was more than 100 µM throughout.
Consider `CCOC(=O)NC(=O)c1cn(CCSCCOC(=O)NCCCCCCNC(=O)OCCSCCn2cc(C(=O)NC(=O)OCC)c(=O)n(C)c2=O)c(=O)n(C)c1=O`, for which the total growth inhibition concentration (TGI) in the assay on SNB-75 CNS, with SK-OV-3 ovarian, in the assay with SK-MEL-2 melanoma, in the assay with TK-10 renal, in the assay with SN12C renal and in the assay with ACHN renal was more than 100 µM each time. Moreover, the TGI in the assay on M19-MEL melanoma was 51.3 µM; in the assay on SNB-78 CNS it was more than 100 µM; in the assay with HL-60(TB) leukemia, 43 µM.
Regarding `COc1ccc(/C=C/c2onc3c(=O)n(C)nc(-c4ccccc4)c23)cc1`, the TGI in the assay on SK-OV-3 ovarian, in the assay on TK-10 renal, in the assay on SN12C renal, with IGROV1 ovarian, in the assay on ACHN renal and with M19-MEL melanoma was more than 100 µM throughout. The total growth inhibition concentration (TGI) with HL-60(TB) leukemia was more than 100 µM.
On to `Cn1cnc([N+](=O)[O-])c1Sc1n[nH]c(-c2ccc(Cl)cc2)n1`, for which the concentration for total growth inhibition (TGI) is 50.7 µM in the assay on SNB-75 CNS; 95.7 µM with SK-OV-3 ovarian; 29.9 µM in the assay on SK-MEL-2 melanoma; 43.8 µM with TK-10 renal; 31.6 µM in the assay with SN12C renal; 62.3 µM in the assay on IGROV1 ovarian. The TGI is 41.7 µM in the assay on ACHN renal, 47.7 µM in the assay with M19-MEL melanoma and 70.7 µM in the assay with SNB-78 CNS.
For the compound `C[C@@H]1CC[C@@]2(C)OC(c3ccccc3)[C@H](CO)N2C1=O` (stereo partly specified), the TGI in the assay on SNB-75 CNS, in the assay on SK-MEL-2 melanoma, in the assay on TK-10 renal, in the assay with SN12C renal, in the assay with IGROV1 ovarian and in the assay on ACHN renal was more than 100 µM in each case. For the same compound, the total growth inhibition concentration (TGI) in the assay with M19-MEL melanoma and with SNB-78 CNS was more than 100 µM throughout.
Turning to `C[C@]12Cc3conc3C(O)=C1CC[C@@H]1C2CC[C@@]2(C)C1CC[C@@H]2O` (stereo partly specified), the concentration for total growth inhibition (TGI) in the assay with SNB-75 CNS was 31.1 µM; in the assay on SK-OV-3 ovarian, 89 µM; with SK-MEL-2 melanoma, 21.4 µM; in the assay on TK-10 renal it was more than 100 µM; with SN12C renal, more than 100 µM; in the assay on IGROV1 ovarian, more than 100 µM. For the same compound, the TGI in the assay on ACHN renal was more than 100 µM; with M19-MEL melanoma it was 74.5 µM; with SNB-78 CNS, more than 100 µM; in the assay with HL-60(TB) leukemia, 10.7 µM.
For `CN(C)CC1(C)CC/C(=C\c2ccc(Cl)cc2)C1=O` (stereo unspecified), the TGI with SNB-75 CNS, in the assay on SK-MEL-2 melanoma, in the assay with TK-10 renal, in the assay with SN12C renal, with IGROV1 ovarian and in the assay with ACHN renal was more than 100 µM each time. The concentration for total growth inhibition (TGI) with M19-MEL melanoma, in the assay on SNB-78 CNS and with HL-60(TB) leukemia was more than 100 µM in each case.
Take `c1cc[c]([Ge]([O]c2cccc3cccnc23)([c]2ccccc2)[c]2ccccc2)cc1`: the GI50 in the assay on SNB-75 CNS was 3.5 µM; in the assay on SK-OV-3 ovarian, 3.3 µM; in the assay with SK-MEL-2 melanoma, 2.59 µM; with TK-10 renal, 7.36 µM; in the assay on SN12C renal it was 4.52 µM; with IGROV1 ovarian, 3.1 µM. In addition, the GI50 in the assay on ACHN renal was 8.83 µM; in the assay on M19-MEL melanoma, 3.46 µM; in the assay on SNB-78 CNS, 4.34 µM. Also, the TGI with SNB-75 CNS worked out at 13.1 µM; in the assay with SK-OV-3 ovarian, 8.56 µM; in the assay with SK-MEL-2 melanoma it was 11.7 µM; in the assay on TK-10 renal, 20.3 µM; in the assay on SN12C renal, 16.5 µM; in the assay on IGROV1 ovarian, 10.3 µM. Further, the TGI was found to be 20.8 µM in the assay on ACHN renal, 12.1 µM with M19-MEL melanoma and 17.7 µM in the assay on SNB-78 CNS.
Consider `C=C(C)CC(C(=O)O)c1ccc(C)cc1` (stereo unspecified), for which the TGI in the assay on SNB-75 CNS, in the assay with SK-MEL-2 melanoma, in the assay with TK-10 renal, with SN12C renal, in the assay with IGROV1 ovarian and in the assay on ACHN renal was more than 100 µM in each case. Besides, the TGI in the assay with M19-MEL melanoma and in the assay on SNB-78 CNS was more than 100 µM each time.
In the case of `N#CC(Sc1ccccc1)C(N)=O` (stereo unspecified), the TGI in the assay with SNB-75 CNS, in the assay on SK-OV-3 ovarian, with TK-10 renal, in the assay with SN12C renal, in the assay with IGROV1 ovarian and with M19-MEL melanoma was more than 100 µM each time. In addition, the concentration for total growth inhibition (TGI) in the assay on SNB-78 CNS and in the assay with HL-60(TB) leukemia was more than 100 µM each time.
`O=C1CCC2(c3ccc(Cl)cc3)Nc3ccccc3N12` (stereo unspecified): the TGI in the assay on SNB-75 CNS, with SK-MEL-2 melanoma, in the assay with TK-10 renal, in the assay on SN12C renal, in the assay with IGROV1 ovarian and in the assay with ACHN renal was more than 100 µM throughout. The total growth inhibition concentration (TGI) in the assay on M19-MEL melanoma, in the assay with SNB-78 CNS and in the assay on HL-60(TB) leukemia was more than 100 µM throughout.
For `CN1CCN(C)C1c1ccc(C2N(C)CCN2C)cc1`, the GI50 in the assay on SNB-75 CNS is more than 100 µM; in the assay on SK-OV-3 ovarian it was more than 100 µM; in the assay with SK-MEL-2 melanoma it was more than 100 µM; in the assay on TK-10 renal it was more than 100 µM; with SN12C renal it was 31.4 µM; in the assay on IGROV1 ovarian it was more than 100 µM. The GI50 in the assay on ACHN renal was 80 µM; with HL-60(TB) leukemia, 37.7 µM. The total growth inhibition concentration (TGI) with SNB-75 CNS, in the assay on SK-OV-3 ovarian, in the assay on SK-MEL-2 melanoma, in the assay on TK-10 renal, in the assay on SN12C renal and in the assay with IGROV1 ovarian was more than 100 µM throughout. The concentration for total growth inhibition (TGI) in the assay on ACHN renal and with HL-60(TB) leukemia was more than 100 µM each time.
In the case of `O/N=C1/CCCC/C1=C\c1ccc(Cl)c(Cl)c1`, the TGI is 60.1 µM in the assay with SNB-75 CNS; 86.9 µM in the assay on SK-OV-3 ovarian; more than 100 µM with TK-10 renal; 42.3 µM with SN12C renal; more than 100 µM with IGROV1 ovarian; 71.8 µM in the assay on ACHN renal. The total growth inhibition concentration (TGI) in the assay on M19-MEL melanoma was more than 100 µM; in the assay on SNB-78 CNS, 70.5 µM; in the assay with HL-60(TB) leukemia, 23 µM.
Regarding `O=C(COc1ccccc1)NNc1ccccc1`, the GI50 with SNB-75 CNS is 60.8 µM; in the assay with SK-OV-3 ovarian, 254 µM; in the assay with SK-MEL-2 melanoma it was 74.5 µM; in the assay with TK-10 renal, more than 300 µM; in the assay on SN12C renal it was more than 300 µM; in the assay on IGROV1 ovarian it was more than 300 µM. The GI50 with ACHN renal is 12.5 µM and 13.9 µM; in the assay with HL-60(TB) leukemia, 3.91 µM and 9.54 µM. Besides, the concentration for total growth inhibition (TGI) is 251 µM with SNB-75 CNS; more than 300 µM in the assay on SK-OV-3 ovarian; more than 300 µM with SK-MEL-2 melanoma; more than 300 µM in the assay with TK-10 renal; more than 300 µM with SN12C renal; more than 300 µM with IGROV1 ovarian. In addition, the TGI in the assay with ACHN renal and with HL-60(TB) leukemia was more than 300 µM throughout.
For the compound `O=c1[nH]c(-c2ccc(Cl)c(Cl)c2)cn1-c1ccc(Cl)cc1`, the GI50 in the assay with SNB-75 CNS was 18.6 µM; in the assay on SK-OV-3 ovarian, 19.9 µM; with SK-MEL-2 melanoma, 24.4 µM; in the assay on TK-10 renal it was 16.5 µM; in the assay on SN12C renal it was 26.7 µM; in the assay with IGROV1 ovarian it was 22.6 µM. The GI50 in the assay on ACHN renal is 32.5 µM; with HL-60(TB) leukemia, 34.1 µM. Besides, the total growth inhibition concentration (TGI) in the assay with SNB-75 CNS is 37.5 µM; in the assay on SK-OV-3 ovarian, 41.7 µM; in the assay with SK-MEL-2 melanoma, 64.6 µM; in the assay with TK-10 renal, 32.4 µM; in the assay on SN12C renal it was more than 100 µM; in the assay with IGROV1 ovarian, 79.5 µM. The TGI in the assay on ACHN renal and with HL-60(TB) leukemia was more than 100 µM throughout.
